This note sets out measurements from ChEMBL document CHEMBL1139899, “Alpha-phenyl-N-tert-butyl nitrone (PBN) derivatives: synthesis and protective action against microvascular damages induced by ischemia/reperfusion” (Bioorg Med Chem, 2007).

Data set [1] in a line: Partition coefficient, log P of the compound. Particulars: octanol/water. It is filed as physicochemical.
The subject of data set [2] is Syrian golden hamster. The experiment in a line: Protective effect against ischemia/reperfusion-induced microvascular damages in golden hamster assessed as number of leakage site per cm^2 at 3 mg/kg, po after 15 mins by cheek pouch assay. The class given is functional, Mesocricetus auratus.
For data set [3], the system named is Syrian golden hamster. The experiment in a line: Protective effect against ischemia/reperfusion-induced microvascular damages in golden hamster assessed as number of leakage site per cm^2 at 3 mg/kg, po after 10 mins by cheek pouch assay. The class given is functional, Mesocricetus auratus.
In data set [4] the test system is Syrian golden hamster. The experiment in a line: Protective effect against ischemia/reperfusion-induced microvascular damages in golden hamster assessed as number of leakage site per cm^2 at 10 mg/kg, po after 15 mins by cheek pouch assay. It is filed as functional, Mesocricetus auratus.
In data set [5] the test system is Syrian golden hamster. The data set can be described thus: Protective effect against ischemia/reperfusion-induced microvascular damages in golden hamster assessed as number of leakage site per cm^2 at 10 mg/kg, po after 10 mins by cheek pouch assay. It is filed as functional, Mesocricetus auratus.

What is called logP is the decadic logarithm of the partition coefficient of the neutral form, usually between octanol and water. Low values mean lower lipophilicity, high ones higher lipophilicity. On to `COc1cc(/C=[N+](/[O-])C(C)(C)C)ccc1OCc1ccccc1`, for which the logP in data set [1] stood at 2.68. Besides, the Activity in data set [2] is 35 leakage sites/cm2; in data set [3], 40 leakage sites/cm2.
In the case of `CC(C)(C)/[N+]([O-])=C\c1ccco1`, the logP in data set [1] was determined as 1.1. The Activity was found to be 33 leakage sites/cm2 in data set [2] and 49 leakage sites/cm2 in data set [3].
For `COc1cc(/C=[N+](/[O-])C(C)(C)C)ccc1O`, the logP in data set [1] is 1.58. Further, the Activity in data set [2] amounted to 85 leakage sites/cm2; in data set [3], 108 leakage sites/cm2.
Consider `CC(C)(C)/[N+]([O-])=C/c1ccccc1`, for which the lipophilicity (logP) in data set [1] is 1.5.
In the case of `CC(C)(C)/[N+]([O-])=C\c1ccc([N+](=O)[O-])cc1`, the log partition coefficient (logP) in data set [1] was 1.39. For the same molecule, the Activity was 78 leakage sites/cm2 in data set [2] and 90 leakage sites/cm2 in data set [3].
Consider `CN(C)c1ccc(/C=[N+](/[O-])C(C)(C)C)cc1`, for which, in data set [1], the logP worked out at 1.73. Besides, the Activity in data set [2] was 55 leakage sites/cm2; in data set [3], 75 leakage sites/cm2.
For the molecule `CC(C)(C)/[N+]([O-])=C\c1ccc2c(c1)OCO2`, the logP in data set [1] worked out at 0.57. The Activity in data set [2] turned out to be 38 leakage sites/cm2; in data set [3], 44 leakage sites/cm2.
Regarding `CC(C)(C)/[N+]([O-])=C\c1cccnc1`, the logP in data set [1] worked out at 0.21. The Activity in data set [2] was 60 leakage sites/cm2; in data set [3] it was 68 leakage sites/cm2.
`CC(C)(C)/[N+]([O-])=C/c1cc2c(cc1Br)OCO2`: the logP in data set [1] was 1.69. Further, the Activity in data set [2] is listed as 109 leakage sites/cm2; in data set [3] it was 118 leakage sites/cm2.
In the case of `Cc1c(C)c2c(c(C)c1O)CC[C@@](C)(CCC[C@H](C)CCC[C@H](C)CCCC(C)C)O2` [ALPHA-TOCOPHEROL], the Activity was determined as 45 cm2 in data set [4] and 50 cm2 in data set [5].
